Experimental data taken from PMC12279247, “Inhibition of RACK1‐Mediated NLRP3 Oligomerization (Active Conformation) Ameliorates Acute Respiratory Distress Syndrome” (Advanced Science, 2025).

Biological target: T1, recombinant human RACK1 protein (Homo sapiens, UniProt P63244)
T1 construct: commercial recombinant protein
Assay: surface plasmon resonance, bigelovin loaded on CM5 chip, RACK1 flowed over
Format: binding
Settings: PBS pH 7.4, 0.05% Tween-20, 22 °C; covalent, Cys168

C=C1C(=O)O[C@H]2C[C@@H](C)[C@@H]3C=CC(=O)[C@@]3(C)[C@@H](OC(C)=O)[C@H]12 [bigelovin]
Kd: 240 nM
